Measurements as given in ChEMBL document CHEMBL1201862, “PubChem BioAssay data set” (2004).
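Briefly, cells in 96-well plates were exposed to five compound concentrations for 48 h, and endpoints were estimated by linear interpolation. GI50 is the concentration that inhibits growth by half.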 Active and inactive are the calls of the source. Rule as the data show it: active = GI50 up to about 1.1 µM and inactive = higher.

Key:
Assay in all cases: NCI-60 cell line screen, 48 h
T47D = test system: T47D
U-251 = test system: U-251
HT-29 = test system: HT-29
PC-3 = test system: PC-3
TK-10 = test system: TK-10
SK-MEL-28 = test system: SK-MEL-28
MCF7 = test system: MCF7
HCT-116 = test system: HCT-116
OVCAR-8 = test system: OVCAR-8
NCI-H522 = test system: NCI-H522
HOP-92 = test system: HOP-92
SNB-75 = test system: SNB-75
OVCAR-5 = test system: OVCAR-5
ACHN = test system: ACHN
HCC 2998 = test system: HCC 2998
MDA-MB-435 = test system: MDA-MB-435
SF-295 = test system: SF-295
OVCAR-4 = test system: OVCAR-4
HL-60 = test system: HL-60
A498 = test system: A498

Row | Structure (SMILES) | GI50 (T47D) | GI50 (U-251) | GI50 (HT-29) | GI50 (PC-3) | GI50 (TK-10) | GI50 (SK-MEL-28) | GI50 (MCF7) | GI50 (HCT-116) | GI50 (OVCAR-8) | GI50 (NCI-H522) | GI50 (HOP-92) | GI50 (SNB-75) | GI50 (OVCAR-5) | GI50 (ACHN) | GI50 (HCC 2998) | GI50 (MDA-MB-435) | GI50 (SF-295) | GI50 (OVCAR-4) | GI50 (HL-60) | GI50 (A498)
1 | O=C(Nc1ccccc1)N(C1=NCC(CI)S1)c1ccc(F)cc1F (stereo unspecified) | 15.3 µM (inactive) | > 100 µM (inactive) | 29.2 µM (inactive) | 67.1 µM (inactive) | 82.8 µM (inactive) | 24.1 µM (inactive) | 41.6 µM (inactive) | 55.2 µM (inactive) | > 100 µM (inactive) | 37.9 µM (inactive) | 13.8 µM (inactive) | > 100 µM (inactive) | > 100 µM (inactive) | > 100 µM (inactive) | 74.3 µM (inactive) | 50.1 µM (inactive) | > 100 µM (inactive) | 43.6 µM (inactive) | 20.1 µM (inactive) | –
2 | Cc1nn(-c2ccccc2)c(C)c1/C=N/NC(=O)c1sc(=S)n(-c2ccccc2)c1N | 4.2 µM (inactive) | 4.7 µM (inactive) | 2.69 µM (inactive) | 4.03 µM (inactive) | 1.63 µM (inactive) | 3.25 µM (inactive) | 5.65 µM (inactive) | 4.5 µM (inactive) | 4.69 µM (inactive) | – | – | 0.281 µM (active) | 5.52 µM (inactive) | 1.48 µM (inactive) | 4.61 µM (inactive) | 4.47 µM (inactive) | 2.42 µM (inactive) | 2.69 µM (inactive) | 20.5 µM (inactive) | 3.63 µM (inactive)
3 | O=C1c2ccccc2-c2nc(-c3ccccc3)cc3c2c1nc1ccccc13 | 21.5 µM (inactive) | 10.9 µM (inactive) | 13.2 µM (inactive) | 4.08 µM (inactive) | 15.3 µM (inactive) | 9.25 µM (inactive) | 4.51 µM (inactive) | 10.2 µM (inactive) | 16.4 µM (inactive) | – | – | – | 29.4 µM (inactive) | 18.5 µM (inactive) | 13.8 µM (inactive) | 1.87 µM (inactive) | 12 µM (inactive) | 26.7 µM (inactive) | 1.03 µM (active) | –
4 | CC(C)C(=O)OCC1OC(n2c(Br)nc3c(=O)[nH]c(N)nc32)C(OC(=O)C(C)C)C1OC(=O)C(C)C (stereo unspecified) | 54.8 µM (inactive) | – | 17.8 µM (inactive) | 21.6 µM (inactive) | – | – | 37.6 µM (inactive) | 30.1 µM (inactive) | 31.4 µM (inactive) | 35.2 µM (inactive) | > 100 µM (inactive) | 83.9 µM (inactive) | 75.2 µM (inactive) | > 100 µM (inactive) | – | – | 21.2 µM (inactive) | – | – | –
5 | Clc1ccc(-c2nn3c(-c4ccncc4)nnc3s2)cc1 | > 100 µM (inactive) | 25.9 µM (inactive) | > 100 µM (inactive) | > 100 µM (inactive) | > 100 µM (inactive) | – | > 100 µM (inactive) | > 100 µM (inactive) | > 100 µM (inactive) | > 100 µM (inactive) | 41.6 µM (inactive) | – | > 100 µM (inactive) | 61 µM (inactive) | – | > 100 µM (inactive) | 62.1 µM (inactive) | > 100 µM (inactive) | > 100 µM (inactive) | –
6 | OCC1OC(n2nc(-c3ccccc3)nc2-c2cnccn2)C(O)C(O)C1O (stereo unspecified) | > 100 µM (inactive) | > 100 µM (inactive) | > 100 µM (inactive) | > 100 µM (inactive) | – | > 100 µM (inactive) | > 100 µM (inactive) | > 100 µM (inactive) | > 100 µM (inactive) | > 100 µM (inactive) | > 100 µM (inactive) | > 100 µM (inactive) | > 100 µM (inactive) | – | > 100 µM (inactive) | > 100 µM (inactive) | > 100 µM (inactive) | > 100 µM (inactive) | > 100 µM (inactive) | –
7 | O=C1NC(=O)C(C(CC(=O)c2ccc(Cl)cc2)c2ccc(Cl)cc2)C(=O)N1 (stereo unspecified) | – | > 100 µM (inactive) | > 100 µM (inactive) | > 100 µM (inactive) | – | > 100 µM (inactive) | 17.2 µM (inactive) | 34 µM (inactive) | > 100 µM (inactive) | > 100 µM (inactive) | 40.4 µM (inactive) | > 100 µM (inactive) | > 100 µM (inactive) | > 100 µM (inactive) | 6.73 µM (inactive) | 89.1 µM (inactive) | > 100 µM (inactive) | > 100 µM (inactive) | > 100 µM (inactive) | > 100 µM (inactive)
8 | O=C1NN=C2C=C(c3ccc(Cl)cc3)CC(c3cccc(Cl)c3)C12 (stereo unspecified) | 60.7 µM (inactive) | 18.9 µM (inactive) | 21.9 µM (inactive) | 31.8 µM (inactive) | 20.1 µM (inactive) | – | 17.3 µM (inactive) | 18.5 µM (inactive) | 45.4 µM (inactive) | 15.8 µM (inactive) | 9.79 µM (inactive) | – | 26.5 µM (inactive) | 19.9 µM (inactive) | 17.1 µM (inactive) | 19.1 µM (inactive) | 18.7 µM (inactive) | 17.2 µM (inactive) | 21.2 µM (inactive) | –
9 | CCOC(O)(NC(=O)C(C(F)(F)F)C(F)(F)F)C(F)(F)F (stereo unspecified) | > 100 µM (inactive) | > 100 µM (inactive) | > 100 µM (inactive) | > 100 µM (inactive) | > 100 µM (inactive) | > 100 µM (inactive) | – | > 100 µM (inactive) | > 100 µM (inactive) | – | – | > 100 µM (inactive) | > 100 µM (inactive) | > 100 µM (inactive) | > 100 µM (inactive) | > 100 µM (inactive) | – | – | > 100 µM (inactive) | > 100 µM (inactive)
10 | CC(C)CNC(=O)Cn1c2c(c3ccccc31)CCCC2 | – | – | > 100 µM (inactive) | 58.5 µM (inactive) | 35.8 µM (inactive) | > 100 µM (inactive) | > 100 µM (inactive) | 27.8 µM (inactive) | 81.5 µM (inactive) | – | 43.8 µM (inactive) | – | > 100 µM (inactive) | 33 µM (inactive) | > 100 µM (inactive) | 73.3 µM (inactive) | 35.8 µM (inactive) | 35.4 µM (inactive) | 34 µM (inactive) | 22.2 µM (inactive)
11 | Cn1nc(-c2ccc(S(=O)(=O)N/C(=N/c3ccc(Cl)cc3)NN)s2)cc1C(F)(F)F | 13.3 µM (inactive) | 14.6 µM (inactive) | 16.2 µM (inactive) | 16.9 µM (inactive) | 19.1 µM (inactive) | 18.3 µM (inactive) | 21 µM (inactive) | 14.9 µM (inactive) | 19.6 µM (inactive) | – | 20.4 µM (inactive) | 16.3 µM (inactive) | 15.9 µM (inactive) | 18.4 µM (inactive) | – | – | 16.2 µM (inactive) | 15.9 µM (inactive) | < 0.01 µM (active) | 16.4 µM (inactive)
12 | O=C(OCCN=c1c2ccccc2ccc2ccccc12)c1cc([N+](=O)[O-])cc([N+](=O)[O-])c1 | > 100 µM (inactive) | > 100 µM (inactive) | > 100 µM (inactive) | > 100 µM (inactive) | > 100 µM (inactive) | > 100 µM (inactive) | > 100 µM (inactive) | > 100 µM (inactive) | > 100 µM (inactive) | – | > 100 µM (inactive) | > 100 µM (inactive) | > 100 µM (inactive) | > 100 µM (inactive) | – | > 100 µM (inactive) | > 100 µM (inactive) | 36.1 µM (inactive) | > 100 µM (inactive) | –
13 | COc1ccc(C2NC(N)=C(C#N)C3=C2C(C)CCC3)cc1OC (stereo unspecified) | 2.96 µM (inactive) | 41.8 µM (inactive) | 40 µM (inactive) | 44.8 µM (inactive) | 92.3 µM (inactive) | > 100 µM (inactive) | 43.2 µM (inactive) | > 100 µM (inactive) | 75.7 µM (inactive) | – | – | 1.44 µM (inactive) | > 100 µM (inactive) | 32.3 µM (inactive) | – | 63.5 µM (inactive) | 12.3 µM (inactive) | – | 14.5 µM (inactive) | –
14 | O=S(=O)(O)c1cc(S(=O)(=O)O)c2c(/N=N/c3ccccc3)c(O)ccc2c1 | > 100 µM (inactive) | > 100 µM (inactive) | > 100 µM (inactive) | > 100 µM (inactive) | > 100 µM (inactive) | > 100 µM (inactive) | – | > 100 µM (inactive) | > 100 µM (inactive) | – | > 100 µM (inactive) | > 100 µM (inactive) | > 100 µM (inactive) | – | – | > 100 µM (inactive) | > 100 µM (inactive) | > 100 µM (inactive) | – | > 100 µM (inactive)
15 | C=C(C)C(O)C(O)C[C@@H](C)C1CC[C@]23C[C@]12CCC1[C@@]2(C)CCC(OC(C)=O)C(C)(C)C2CC(OC2OC(CO)C(O)C(O)C2O)[C@]13C (stereo partly specified) | 17.4 µM (inactive) | 15.7 µM (inactive) | 18.2 µM (inactive) | 18.4 µM (inactive) | 20.8 µM (inactive) | 22.5 µM (inactive) | 17 µM (inactive) | 15.9 µM (inactive) | 19.5 µM (inactive) | 17 µM (inactive) | 12.9 µM (inactive) | 19.6 µM (inactive) | 20.9 µM (inactive) | 31.6 µM (inactive) | 15.7 µM (inactive) | 17.5 µM (inactive) | 18.9 µM (inactive) | 16 µM (inactive) | 18.1 µM (inactive) | –
16 | COc1ccc(C2=C(OC(=O)N(C)C)c3cccn3-c3cc(Cl)ccc3S2)cc1 | 5.3 µM (inactive) | – | > 10 µM (inactive) | 5.64 µM (inactive) | > 10 µM (inactive) | > 10 µM (inactive) | 8.51 µM (inactive) | – | > 10 µM (inactive) | – | 6.78 µM (inactive) | > 10 µM (inactive) | – | – | > 10 µM (inactive) | > 10 µM (inactive) | > 10 µM (inactive) | 6.79 µM (inactive) | 6.1 µM (inactive) | –
